Laboratory results published in ChEMBL document CHEMBL1123773, “The role of solvent-accessible surface area in determining partition coefficients” (J Med Chem, 1987).

Legend:
[1] = Partition coefficient (logP) (chloroform); conditions: octanol/water
[2] = Partition coefficient (logP); conditions: octanol/water
[3] = Partition coefficient (logP) (hexane); conditions: octanol/water
[4] = Partition coefficient (logP) (ether); conditions: octanol/water
[5] = Diffusion constant for permeability of stratum corneum; assay type: ADME
[6] = Partition coefficient (logP) (carbon tetrachloride); conditions: octanol/water
[7] = Partition coefficient (logP) (benzene); conditions: octanol/water

Compound	logP [1]	logP [2]	logP [3]	logP [4]	Log k [5]	logP [6]	logP [7]
COc1ccc(C=O)cc1O [ISOVANILLIN]	1.18	0.97	-0.85	0.82	–	–	–
C[C@]12CCC(=O)C=C1CC[C@@H]1[C@@H]2[C@@H](O)C[C@]2(C=O)[C@@H](C(=O)CO)CC[C@@H]12 [ALDOSTERONE]	–	–	–	–	0.48	–	–
O=C(O)c1cccc([N+](=O)[O-])c1	0.48	–	-1.22	1.97	–	–	–
CC(=O)[C@@]1(O)CC[C@H]2[C@@H]3CC[C@@H]4C[C@H](O)CC[C@]4(C)[C@H]3CC[C@@]21C [HYDROXYPREGNENOLONE]	–	–	–	–	2.78	–	–
CCN [ETHYLAMINE]	-0.35	-0.3	-1.77	-1.18	–	–	–
CO [METHYL ALCOHOL]	-1.26	-0.77	-2.8	-1.15	–	–	–
CCC(=O)O [PROPIONIC ACID]	-0.96	–	-2.14	0.27	–	–	–
COC(C)=O [ACETIC ACID METHYL ESTER]	1.16	–	-0.26	0.43	–	–	–
Oc1ccc(O)cc1 [HYDROQUINONE]	0.23	–	0.05	0.38	–	0.04	0.15
O=[N+]([O-])c1cccc(O)c1 [3-NITRO-PHENOL]	0.6	–	-1.4	2.18	–	–	–
O=C(O)c1ccc(O)cc1 [PARABEN]	-0.5	–	-1.82	1.42	–	–	–
CCCCN [BUTYLAMINE]	0.56	0.74	-0.62	0.11	–	–	–
COc1ccccc1O [GUAIACOL]	1.7	1.32	0.36	1.44	–	–	–
Nc1ccccc1C(=O)O [ANTHRANILIC ACID]	-1.15	1.21	-2.12	1.43	–	–	–
CC(C)=O [ACETONE]	0.24	–	-0.91	-0.21	–	–	–
Oc1ccc2ccccc2c1 [BETANAPHTHOL]	1.74	–	0.3	1.77	–	0.99	1.74
CC(C)CO [ISOBUTANOL]	0.34	0.65	-0.6	0.53	–	–	–
CC(C)(C)N [TERT-BUTYLAMINE]	0.54	0.27	-0.48	-0.26	–	–	–
CCCCCC(=O)O [HEXANOATE]	1.15	–	-0.46	1.95	–	–	–
O=C(O)CCl [CHLOROACETIC ACID]	-1.92	0.22	-3.14	0.37	–	–	–
CCCCCO [1-PENTANOL]	1.05	–	-0.4	1.2	–	–	–
CCCCC(=O)O [VALERIC ACID]	0.28	1.39	-1	1	–	–	–
Nc1cccc([N+](=O)[O-])c1 [3-NITROANILINE]	1.61	–	-0.62	1.71	–	–	–
O=Cc1ccc(O)cc1 [4-HYDROXYBENZALDEHYDE]	-0.12	–	-0.95	1.1	–	–	–

Compound	logP [1]	logP [2]	logP [3]	logP [4]	Log k [5]	logP [6]	logP [7]
C[C@]12CC[C@H]3[C@@H](CCC4=CC(=O)CC[C@@]43C)[C@@H]1CC[C@@H]2C(=O)CO [DESOXYCORTICOSTERONE]	–	–	–	–	2.65	–	–
CCC1(c2ccccc2)C(=O)NC(=O)NC1=O [PHENOBARBITAL]	0.62	1.71	-2.22	1.51	–	–	–
C[C@]12CCC(=O)C=C1CC[C@@H]1[C@@H]2CC[C@@]2(C)[C@H]1CC[C@]2(O)C(=O)CO [CORTODOXONE]	–	–	–	–	1.88	–	–
CC(=O)[C@H]1CC[C@H]2[C@@H]3CCC4=CC(=O)CC[C@]4(C)[C@H]3CC[C@]12C [PROGESTERONE]	–	–	–	–	3.18	–	–
Oc1ccccc1 [PHENOL]	0.37	–	-0.7	1.64	–	-0.36	0.36
CC(=O)[C@@]1(O)CC[C@H]2[C@@H]3CCC4=CC(=O)CC[C@]4(C)[C@H]3CC[C@@]21C [HYDROXYPROGESTERONE]	–	–	–	–	2.78	–	–
COc1cccc(C=O)c1O	2.3	1.37	0.53	1.35	–	–	–
CCC(N)CC	0.81	0.57	-0.48	-0.07	–	–	–
Nc1ccccc1 [ANILINE]	1.42	–	-0.3	0.85	–	–	–
O=C(O)C(Cl)(Cl)Cl [TRICHLOROACETIC ACID]	-0.69	1.33	-2.63	1.21	–	–	–
C[C@]12C[C@H](O)[C@H]3[C@@H](CCC4=CC(=O)CC[C@@]43C)[C@@H]1CC[C@@H]2C(=O)CO [CORTICOSTERONE]	–	–	–	–	1.78	–	–
O=[N+]([O-])c1ccccc1O [NITROPHENOLATE]	2.35	–	1.4	2.18	–	–	–
Nc1ccccc1[N+](=O)[O-] [2-NITROANILINE]	2.13	1.85	0.25	1.95	–	–	–
CCCCCCCO [1-HEPTANOL]	2.41	2.41	1.01	2.4	–	–	–
CC(=O)[C@H]1CC[C@H]2[C@@H]3CC=C4C[C@@H](O)CC[C@]4(C)[C@H]3CC[C@]12C [PREGNENOLONE]	–	–	–	–	3.17	–	–
C[C@]12CCC(=O)C=C1CC[C@@H]1[C@@H]2C(=O)C[C@@]2(C)[C@H]1CC[C@]2(O)C(=O)CO [CORTISONE]	–	–	–	–	1	–	–
COc1ccc(O)cc1 [MEQUINOL]	0.23	–	-0.76	1.47	–	–	–
C[C@]12CC[C@H]3[C@@H](CCC4=CC(=O)CC[C@@]43C)[C@@H]1CC[C@@H]2O [TESTOSTERONE]	–	–	–	–	2.6	–	–
COc1cc(C=O)ccc1O [VANILLIN]	1.42	–	-0.72	0.96	–	–	–
CCCC(C)C1(CC)C(=O)NC(=O)NC1=O (centres undefined) [PENTOBARBITAL]	1.38	2.1	-1.3	1.28	–	–	–
CCCN [PROPYLAMINE]	0.26	0.28	–	-0.54	–	–	–
O=C(O)c1ccccc1O [SALICYLIC ACID]	0.58	–	-0.57	2.37	–	0	0.5
CCOC(C)=O [ETHYL ACETATE]	1.8	–	0.29	0.93	–	–	–
O=[N+]([O-])c1ccc(O)cc1 [P-NITROPHENOL]	0.2	–	-2	2.01	–	–	–
